Paper PMC4965013, “Open Source Drug Discovery with the Malaria Box Compound Collection for Neglected Diseases and Beyond” (PLoS Pathogens, 2016)
pEC50: −log10 of the molar value. Like-named read-outs stand apart in the source and are kept apart here.

Experiments:
[1] = test system: P. falciparum NF54 gametocytes stage I-V; parameters: method as in ref [58, 65] (a number printed in a supplementary file, which may have a reference list of its own: not looked up in the article's list); conditions: 12.5µM; ref [58, 65]; cited from earlier work
[2] = test system: HIV-1 JR-FL or HIV-1 NL4-3 pseudoviruses; assay: HIV-1 pseudovirus infection luciferase; format: cell-based; conditions: Human immunodeficiency virus 1, HXB2 / NL43, read-out: HIV HXB2 % inhibition rep2 in U87 Luc
[3] = test system: U87-CD4-CCR5 or U87-CD4-CXCR4 cells; assay: U87 cell viability MTT; format: cell-based; conditions: for U87 % cell death rep3 (X4 P24 Washout expt): 5uM; for U87 % Cell Death rep3 (R5 P24 Washout expt) / U87 % cell death rep3 (R5 P24 NO Washout expt) / U87 % cell death rep3 (X4 P24 NO Washout expt) / U87 Luc % cell death rep1 / U87 Luc % cell death rep2: 5µM
HepG2-A16-CD81EGFP cells = conditions: 50uM; ref [58, 65]; cited from earlier work
zebrafish embryos = assay: Zebrafish embryo toxicity, mortality, behaviour; format: in vivo; conditions: 10µM
Experimental: Columns FE-FG: BIOBIDE group (data presented first in this paper). Zebrafish embryo toxicity, mortality, and behaviour change. 3 days post fertilization (dPf) zebrafish embryos from AB strain (wild type) were used for in vivo toxicity and behavioural screening. […] Then, embryos were incubated with each compound at 10 µM (1% DMSO) in E3 buffered with HEPES at 10 mM for 48 hours in 24 well plates, 5 embryos per well, 3 wells per condition (n=15). A group treated only with the vehicle was included in each plate as negative control. Afterwards, mortality and morphological alterations were assessed. Toxicity: When an altered phenotype (mortality, developmental abnormalities) appeared in more than 20% of cases it was considered toxic. […] For this purpose, 5dPf larvae (treated and negative controls) were transferred from 24-well treatment plate to 96-well plate, one embryo per well. 96-well plate was introduced in DanioVision system powered by Ethovision (Noldus). The behaviour was evaluated recording a total of 40 minutes in a round of 10 minutes under light and 10 minutes in darkness repeated twice. As activity is expected to differ under light and dark periods, the analysis was performed for each one of the 10 minutes phases. The differences between treated and controls for each parameter (distance, velocity) and phase was considered significant if p value is less than 0.005 (scored y for yes in HeatMap). Also, the p values between 0.01 and 0.005 were taken into account as an indicator of tendency (scored m for maybe in heat map). The toxic character of a compound was determined by the consistent differences (in both dark and light periods) between treated embryos and controls. […] If consistent results could not be obtained, the compound was scored i for indeterminate.

[4] = test system: P. falciparum NF54 GFP-Pfs16 gametocytes stage IV-V; conditions: ref [64], cited from earlier work
[5] = test system: Entamoeba histolytica Rahman; parameters: method as in ref [87] (a number printed in a supplementary file, which may have a reference list of its own: not looked up in the article's list); conditions: read-out: Entamoeba histolytica Rahman EC50 (30 means >30); ref [87]; cited from earlier work
[6] = Plasma protein binding human; format: in vitro ADME
Experimental: Columns GD-GJ: Wuxi Inc. data for MMV (data presented first in this paper) PK/DMPK Parameters: Fasted animals (Male CD-1 mouse, 7-9 weeks age, 30±10 g, n=3) obtained from an approved vendor (SLAC Laboratory Animal Co. Ltd., Shanghai, China or Sino-British SIPPR/BK Laboratory Animal Co. Ltd Shanghai, China) were administered with a single oral dose (140 μmol/kg) using DMSO: 1% HPMC (5:95) as a vehicle. Blood sampling was performed via the submandibular or saphenous vein (t=0.083, 0.25, 1, 2, 4, 6 and 9 h) and transferred into microcentrifuge tubes containing Sodium Heparin (1,000 IU/ml) as anti-coagulant placed on wet ice until processed for plasma by centrifugation at approximately 4°C, 3000×g for 15 min. Plasma samples were stored in polypropylene tubes, quick frozen over dry ice and kept at -70±10°C until LC/MS/MS analysis. LC/MS/MS methods for the quantitative determination compounds plasma levels were developed with an internal standard. […] (Phoenix WinNonlin, version 6.2.1, Pharsight, Mountain View, CA) and expressed as Cmax & AUC0-last. […] AUC0-last is the area under the curve expressed as >12 h*μM (Yes or No). Plasma protein binding assay (PPB) (CD-1 mouse and human) expressed as <95% bound, >95% bound, or >99% bound. Kinetic Solubility at pH 7.4 was determined by liquid chromatography/chemiluminescence nitrogen detection (LC/CLND) and was scored as greater than 20µM (Yes or No). hERG inhibition was measured at 11µM by the QPatch- HT system and is expressed as “Yes” if greater than 45% inhibited at 11µM and “No” if less than or equal to 45% inhibited at 11µM. As part of the Drug-Drug Interaction studies (DDI issues), 5 human and 1 mouse CYP isoforms (1A2, 2C9, 2C19, 2D6, 3A4-M, 3A4-T) were tested for inhibition assay at 10 µM. […] Otherwise DDI issues were scored as “No”. Positive and negative controls were run for each assay (Table 1).

[7] = test system: P. falciparum NF54Pfs16 gametocytes stage I-III; conditions: ref [61], cited from earlier work
B. caballi (USDA) = assay: B. caballi fluorescence-based growth assay; format: cell-based; conditions: Babesia caballi
[8] = test system: P. falciparum W2 apicoplast; conditions: 5µM compound; ref [54]; cited from earlier work

SMILES	gametocyte Stage I % inhibition [1]	gametocyte Stage II % inhibition [1]	gametocyte Stage III % inhibition [1]	gametocyte Stage IV % inhibition [1]	gametocyte Stage V % inhibition [1]	inhibition at 5 µM [2]	U87 % cell death rep3 (X4 P24 Washout expt) [3]	U87 % Cell Death rep3 (R5 P24 Washout expt) [3]	U87 % cell death rep3 (R5 P24 NO Washout expt) [3]	U87 % cell death rep3 (X4 P24 NO Washout expt) [3]	U87 Luc % cell death rep1 [3]	U87 Luc % cell death rep2 [3]	HepG2 toxicity rep 1 (HepG2-A16-CD81EGFP cells)	Zebrafish % mortality (zebrafish embryos)	gametocyte late stage (IV-V) GFP-MTR % inhibition ([4]; 0.5µM)	gametocyte late stage (IV-V) GFP-MTR % inhibition ([4]; 5µM)	pEC50 [5]	fraction unbound [6]	gametocyte early stage (I-III) luciferase % inhibition ([7]; 0.5µM)	gametocyte early stage (I-III) luciferase % inhibition ([7]; 2.5µM)	other results
CCOC(=O)c1cnc2ccc(OC)cc2c1NCc1ccccc1 [MMV665813]	68%	46%	-0.559%	15%	12%	-1.56%	12%	-10%	-9%	46%	-52%	36%	-1.52%	100%	10%	2%	< 4.52	< 0.01	-13%	-10%	Zebrafish Toxicity (mortality and dev abnl) (zebrafish embryos): y (altered phenotype (mortality, developmental abnormalities) appeared in more than 20% of cases it was considered toxic); gametocyte early stage (I-III) luciferase % inhibition ([7]; 5µM): -8%; pEC50 (B. caballi (USDA)): 5.23; P. falciparum (W2) asexual growth: ratio w & wout 200µM IPP [8]: 0.72
CCN(CC)c1cc(C)c2cc(NC(=O)c3cccc(OC)c3)ccc2n1 [MMV000498]	84%	43%	12%	1.56%	-1.9%	55%	-4%	1.63%	33%	13%	21%	64%	0.453%	0%	-0.167%	87%	< 4.52	< 0.01	-15%	-18%	HepG2 toxicity rep 2 (HepG2-A16-CD81EGFP cells): -1.24%; gametocyte early stage (I-III) luciferase % inhibition ([7]; 5µM): -3.81%; pEC50 (B. caballi (USDA)): 5.03; P. falciparum (W2) asexual growth: ratio w & wout 200µM IPP [8]: 1.10
CCN1CCN(c2cc(C)c3cc(NC(=O)c4ccc(OC)c(OC)c4)ccc3n2)CC1 [MMV019074]	66%	32%	-6%	16%	9%	-69%	-32%	7.48%	17%	3.26%	0.063%	10%	1.64%	0%	-6.56%	4%	< 4.52	> 0.05	-13%	-14%	HepG2 toxicity rep 2 (HepG2-A16-CD81EGFP cells): -0.0766%; Zebrafish Toxicity (mortality and dev abnl) (zebrafish embryos): y (altered phenotype (mortality, developmental abnormalities) appeared in more than 20% of cases it was considered toxic); gametocyte early stage (I-III) luciferase % inhibition ([7]; 5µM): -6.56%; pEC50 (B. caballi (USDA)): 5.23
COc1ccc(C(=O)Nc2ccc3nc(N4CCCCC4)cc(C)c3c2)cc1OC [MMV019758]	72%	41%	3.44%	8%	0.3%	-36%	-25%	3.19%	39%	-2.11%	-1.12%	4.5%	-1%	13%	3.3%	51%	< 4.52	< 0.01	-7%	-13%	HepG2 toxicity rep 2 (HepG2-A16-CD81EGFP cells): -1.21%; Zebrafish Toxicity (mortality and dev abnl) (zebrafish embryos): y (altered phenotype (mortality, developmental abnormalities) appeared in more than 20% of cases it was considered toxic); gametocyte early stage (I-III) luciferase % inhibition ([7]; 5µM): -5.6%; pEC50 (B. caballi (USDA)): 6.29; P. falciparum (W2) asexual growth: ratio w & wout 200µM IPP [8]: 0.79
COc1cc2cc(C(=O)Nc3ccccc3)c(N)nc2cc1OC [MMV006767]	96%	56%	26%	12%	23%	51%	51%	-0.103%	95%	106%	75%	43%	82%	0%	3%	-13%	< 4.52	> 0.05	-7%	7.41%	HepG2 toxicity rep 2 (HepG2-A16-CD81EGFP cells): 90%; Zebrafish Toxicity (mortality and dev abnl) (zebrafish embryos): y (altered phenotype (mortality, developmental abnormalities) appeared in more than 20% of cases it was considered toxic); gametocyte early stage (I-III) luciferase % inhibition ([7]; 5µM): 19%; pEC50 (B. caballi (USDA)): 5.21
